Experimental data: US11872200B2, “GABA agonists in the treatment of disorders associated with metabolic syndrome and GABA combinations in treatment or prophylaxis of type I diabetes” (The Regents of the University of California, priority 2010, dated 2024)

Key:
β-cells = assay: STZ oxidative-stress induced β-cell apoptosis, pancreas sections co-stained with TUNNEL and anti-insulin; type: in vivo, C57Bl/6 mice; settings: for relative area of insulin+ cells to the total area of the islets: 48 hours after STZ (FIG. 10C); for STZ mediated oxidative-stress-induced apoptosis: 48 hours after STZ, N=4 mice/group (FIG. 10A)
Experimental: C57Bl/6 mice received a moderate dose of STZ and then given plain water (control), water+GABA, or water+baclofen (a GABAB-R agonist). 48 hours later their pancreas were removed and sections co-stained with TUNNEL and anti-insulin.
N=4 mice/group, at least 100 islets analyzed per group.

HFD-fed mice = assay: GABA in drinking water of high fat diet (HFD) fed mice; type: in vivo
Experimental: Mice were fed high fat diet (HFD) or “western diet” causing them to gain weight, become obese, and develop glucose intolerance, insulin resistance, and metabolic syndrome. The mice were provided either normal water, or water that contained GABA (6 mg/ml). The weight, food intake, water intake, glucose tolerance, insulin sensitivity and blood glucose levels of the mice was monitored over 5 months.

Treg responses = assay: In vitro culture system with IL-2 and anti-CD3; type: cell-based; settings: preliminary data; IL-2 and anti-CD3 in an in vitro culture system
Excerpt: It is noted that the GABA treatment can both suppress autoimmune responses by working on GABA-A receptors on immune cells, and promote B-cell survival through their GABA-B receptors.

newly diabetic NOD mice = assay: Reversal of hyperglycemia in newly diabetic NOD mice; type: in vivo; settings: GABA 6 mgs/ml in drinking water, GAD/alum 100 μg sc on day 1 and 14 (FIG. 9)
Experimental: Mice were considered diabetic after two blood glucose>250 mgs/dL. […] Data shown are blood glucose levels in individual mice given no treatment (FIG. 9A), GABA alone (6 mgs/ml in drinking water) (FIG. 9B), or GABA+GAD/alum (100 μg sc on day 1 and 14) (FIG. 9C).

[1] = test system: syngenic islet grafts in diabetic NOD mice; assay: Syngenic islet graft survival in diabetic NOD mice; type: in vivo; settings: diabetic NOD mice treated 28 days, then NOD.scid islets under kidney capsule; 10 week observation period (FIG. 8)
Excerpt: Mice were given insulin as needed. After 28 days the mice received NOD.scid islets under their kidney capsule and insulin treatment was discontinued. Data shown are individual mouse blood glucose levels post-transplantation (FIG. 8A-8D). […] Dashed line indicates blood glucose of 250 mgs/dL.

Q: What does the source list for NCC(CC(=O)O)c1ccc(Cl)cc1 (racemic) [baclofen, (RS)-4-amino-3-(4-chlorophenyl)butanoic acid, reference compound]?
A: relative area of insulin+ cells to the total area of the islets (β-cells): greater β-cell area, but this did not reach the level of statistical significance; STZ mediated oxidative-stress-induced apoptosis (β-cells; baclofen in water): significantly inhibits

Q: What does the source list for NCCCC(=O)O [GABA, 4-aminobutanoic acid]?
A: glucose tolerance (HFD-fed mice; GABA 6 mg/ml in water (FIG. 3)): improved; insulin sensitivity (HFD-fed mice; GABA 6 mg/ml in water (FIG. 4)): improved; fasting blood glucose levels (HFD-fed mice; GABA 6 mg/ml in water (FIG. 5)): reduced; HFD-induced obesity (body weight) (HFD-fed mice; GABA 6 mg/ml in water (FIG. 6)): mitigated; infiltration of macrophages into white adipose tissue (HFD-fed mice; GABA 6 mg/ml in water (FIG. 7, top panel)): inhibited; mass of adipocytes (HFD-fed mice; GABA 6 mg/ml in water (FIG. 7 bottom panel)): significantly reduced; Treg responses (Treg responses): can promote Treg responses; reversal of hyperglycemia (newly diabetic NOD mice): prolongs a state of modest hyperglycemia for a short period, after which the mice progress to severe hyperglycemia; time until mice became diabetic again after receiving the graft [1]: about 3 weeks; insulin-expressing cells per 100 islet cells (β-cells; 48 hours after STZ (FIG. 10B)): preserving insulin-expressing β-cell s; relative area of insulin+ cells to the total area of the islets (β-cells): preserve the area of insulin producing β-cells; STZ mediated oxidative-stress-induced apoptosis (β-cells; GABA 2 mg/ml in water): significantly inhibits; STZ mediated oxidative-stress-induced apoptosis (β-cells; GABA 6 mgs/ml in water): significantly inhibits

Q: What does the source list for “GAD/alum: glutamic acid decarboxylase (GAD) β-cell antigen vaccine given with alum adjuvant”?
A: reversal of hyperglycemia (newly diabetic NOD mice): cannot reverse hyperglycemia; time until mice became diabetic again after receiving the graft [1]: about 3 weeks

Q: For “insulin B-chain: β-cell antigen used as antigen-based therapy”, which reversal of hyperglycemia (newly diabetic NOD mice) is on record?
A: The reversal of hyperglycemia was “cannot reverse hyperglycemia”.
